The target in experiment [1] is T1, THR alpha-LBD (Homo sapiens, UniProt P10827).
T1 construct: except that THR alpha-LBD of a final concentration 0.25 nM was used; purchased Invitrogen PV4687
Nature of the experiment: THR-α Coactivator Peptide Recruitment Assay (LanthaScreen TR-FRET). Type of experiment: biochemical. The gist of the method: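 TR-FRET coactivator recruitment with THR alpha-LBD at 0.25 nM final, Fluorescein-SRC2-2 peptide 0.1 nM and Tb-labeled anti-GST antibody 2 nM; 2 h incubation at room temperature. 520/495 nm emission ratio fitted to a four-parameter sigmoidal curve to give EC50.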
In general terms: TR-FRET usually uses a lanthanide donor and a delayed reading to cut background.

For experiment [2], the target named is T2, THR beta-LBD (Homo sapiens, UniProt P10828).
T2 construct: THR beta-LBD (the final concentration is 0.5 nM) was added to the 384-well assay plate; purchased Invitrogen PV4686
T2 sequence (P10828 217-461 limits assumed): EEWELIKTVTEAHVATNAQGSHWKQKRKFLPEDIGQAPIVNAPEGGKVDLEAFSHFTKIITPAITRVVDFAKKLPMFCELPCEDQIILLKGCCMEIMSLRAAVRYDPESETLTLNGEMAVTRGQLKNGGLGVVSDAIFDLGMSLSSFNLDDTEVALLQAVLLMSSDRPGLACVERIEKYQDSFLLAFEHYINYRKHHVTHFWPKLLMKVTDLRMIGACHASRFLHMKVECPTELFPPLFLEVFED
Nature of the experiment: THR-β Coactivator Peptide Recruitment Assay (LanthaScreen TR-FRET). It is filed as biochemical. An outline of the steps:
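GST-tagged THR beta-LBD (0.5 nM) with test compound recruits fluorescein-SRC2-2 coactivator peptide (0.1 nM), detected with Tb-anti-GST antibody (2 nM).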

[3] abbreviates: TR-FRET coactivator recruitment, THR alpha-LBD 0.25 nM.
[4] abbreviates: TR-FRET coactivator recruitment, THR beta-LBD 0.5 nM.
[5] abbreviates: TR-FRET coactivator recruitment, THR alpha-LBD 0.25 nM, read-out: THRα EC50.
Where [6] appears, read: TR-FRET coactivator recruitment, THR beta-LBD 0.5 nM, read-out: THRβ EC50.

Read-outs that look alike come from different tables or passages of the source.

T1 sequence (P10827 163-410 isoform P10827-2 limits assumed, other chains not shown): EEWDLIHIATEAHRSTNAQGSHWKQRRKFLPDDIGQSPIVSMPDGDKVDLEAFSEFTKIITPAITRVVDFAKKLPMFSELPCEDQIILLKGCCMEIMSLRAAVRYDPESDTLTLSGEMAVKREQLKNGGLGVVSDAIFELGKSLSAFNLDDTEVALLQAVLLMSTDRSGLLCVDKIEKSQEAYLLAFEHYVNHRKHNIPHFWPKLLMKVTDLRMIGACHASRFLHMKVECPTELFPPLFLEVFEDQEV

Broadly, the EC50 is the concentration that produces a half-maximal response. As to `O=C(N[C@H]1C[C@H](NS(=O)(=O)c2cc(Oc3c(Cl)cc(-n4nc(C(F)F)c(=O)[nH]c4=O)cc3Cl)ccc2O)C1)C1CC1` [Compound 78, N-[3-[[5-[2,6-dichloro-4-[6-(difluoromethyl)-3,5-dioxo-1,2,4-triazin-2-yl]-phenoxy]-2-hydroxy-phenyl]-sulfonylamino]-cyclobutyl]-cyclopropanecarboxamide], the EC50 lay in the range of 200 to 1000 nM in experiment [1] and 20 to 100 nM in experiment [2]. In addition, in experiment [1] (setting [3]), the “THRα Emax” value is listed as “B (40~85)”. The “THRβ Emax” value in experiment [2] (setting [4]) is “C (<75)”.

In the case of `N#CC12CC(NS(=O)(=O)c3cc(Oc4c(Cl)cc(-n5nc(C(F)F)c(=O)[nH]c5=O)cc4Cl)ccc3O)(C1)C2` [Compound 79, N-(3-cyanobicyclo[1.1.1]pentan-1-yl)-5-(2,6-dichloro-4-(6-(difluoromethyl)-3,5-dioxo-4,5-dihydro-1,2,4-triazin-2 (3H)-yl)phenoxy)-2-hydroxybenzenesulfonamide], the “THRα Emax” value in experiment [1] (setting [3]) is “A (85~110)”. Moreover, the values for the EC50 in experiment [1] (setting [5]) and in experiment [2] (setting [6]) were 2 to 200 nM and less than 2 nM, respectively. The “THRβ Emax” value in experiment [2] (setting [4]) is recorded as “B (75~90)”.

As to `O=c1[nH]c(=O)n(-c2cc(Cl)c(Oc3ccc(O)c(S(=O)(=O)NCC4(O)CC4)c3)c(Cl)c2)nc1C(F)F` [Compound 80, 5-(2,6-dichloro-4-(6-(difluoromethyl)-3,5-dioxo-4,5-dihydro-1,2,4-triazin-2(3H)-yl)phenoxy)-2-hydroxy-N-((1-hydroxycyclopropyl)methyl)benzenesulfonamide], the “THRα Emax” value in experiment [1] (setting [3]) is given as “A (85~110)”. Further, the EC50 in experiment [1] (setting [5]) was in the range of 2 to 200 nM; in experiment [2] (setting [6]), 2 to 20 nM. Also, in experiment [2] (setting [4]), the “THRβ Emax” value was “A (90~110)”.

Take `O=c1[nH]c(=O)n(-c2cc(Cl)c(Oc3ccc(O)c(S(=O)(=O)NC45CC(O)(C4)C5)c3)c(Cl)c2)nc1C(F)F` [Compound 81, 5-(2,6-dichloro-4-(6-(difluoromethyl)-3,5-dioxo-4,5-dihydro-1,2,4-triazin-2(3H)-yl)phenoxy)-2-hydroxy-N-(3-hydroxybicyclo[1.1.1]pentan-1-yl)benzenesulfonamide]: the “THRα Emax” value in experiment [1] (setting [3]) is recorded as “A (85~110)”. The EC50 was in the range of 2 to 200 nM in experiment [1] (setting [5]) and 2 to 20 nM in experiment [2] (setting [6]). For the same molecule, the “THRβ Emax” value in experiment [2] (setting [4]) is recorded as “A (90~110)”.

On to `CS(=O)(=O)[C@H]1C[C@H](NS(=O)(=O)c2cc(Oc3c(Cl)cc(-n4nc(C(F)F)c(=O)[nH]c4=O)cc3Cl)ccc2O)C1` [Compound 82, 5-(2,6-dichloro-4-(6-(difluoromethyl)-3,5-dioxo-4,5-dihydro-1,2,4-triazin-2(3H)-yl)phenoxy)-2-hydroxy-N-((1r,3r)-3-(methylsulfonyl)cyclobutyl)benzenesulfonamide], for which, in experiment [1] (setting [3]), the “THRα Emax” value is recorded as “B (40~85)”. For the same molecule, the EC50 was greater than 1000 nM in experiment [1] (setting [5]) and 20 to 100 nM in experiment [2] (setting [6]). The “THRβ Emax” value in experiment [2] (setting [4]) is given as “B (75~90)”.

With `O=c1[nH]c(=O)n(-c2cc(Cl)c(Oc3ccc(O)c(S(=O)(=O)NC4CS(=O)(=O)C4)c3)c(Cl)c2)nc1C(F)F` [Compound 83, 5-(2,6-dichloro-4-(6-(difluoromethyl)-3,5-dioxo-4,5-dihydro-1,2,4-triazin-2(3H)-yl)phenoxy)-N-(1,1-dioxidothietan-3-yl)-2-hydroxybenzenesulfonamide], the “THRα Emax” value in experiment [1] (setting [3]) is given as “A (85~110)”. Besides, the EC50 was 2 to 200 nM in experiment [1] (setting [5]) and less than 2 nM in experiment [2] (setting [6]). Moreover, the “THRβ Emax” value in experiment [2] (setting [4]) was “A (90~110)”.

As to `O=C(NCC1(NS(=O)(=O)c2cc(Oc3c(Cl)cc(-n4nc(C(F)F)c(=O)[nH]c4=O)cc3Cl)ccc2O)CC1)C1CC1` [Compound 84, N-[[1-[[5-[2,6-dichloro-4-[6-(difluoromethyl)-3,5-dioxo-1,2,4-triazin-2-yl]phenoxy]-2-hydroxy-phenyl]sulfonylamino]cyclopropyl]methyl]cyclopropane carboxamide], in experiment [1] (setting [3]), the “THRα Emax” value is recorded as “A (85~110)”. For the same molecule, the EC50 in experiment [1] (setting [5]) was 2 to 200 nM; in experiment [2] (setting [6]), less than 2 nM. Also, the “THRβ Emax” value in experiment [2] (setting [4]) is given as “A (90~110)”.

In the case of `O=C(NC12CC(NS(=O)(=O)c3cc(Oc4c(Cl)cc(-n5nc(C(F)F)c(=O)[nH]c5=O)cc4Cl)ccc3O)(C1)C2)C1CC1` [Compound 85, N-(3-((5-(2,6-dichloro-4-(6-(difluoromethyl)-3,5-dioxo-4,5-dihydro-1,2,4-triazin-2(3H)-yl)phenoxy)-2-hydroxyphenyl)sulfonamido)bicyclo[1.1.1]pentan-1-yl)cyclopropanecarboxamide], the “THRα Emax” value in experiment [1] (setting [3]) is “C (<40)”. Further, the EC50 in experiment [1] (setting [5]) is greater than 1000 nM; in experiment [2] (setting [6]) it was greater than 100 nM. For the same molecule, the “THRβ Emax” value in experiment [2] (setting [4]) is “C (<75)”.

Regarding `O=C(N[C@H]1C[C@@H](NS(=O)(=O)c2cc(Oc3c(Cl)cc(-n4nc(C(F)F)c(=O)[nH]c4=O)cc3Cl)ccc2O)C1)C1CC1` [Compound 86, N-((1s,3s)-3-((5-(2,6-dichloro-4-(6-(difluoromethyl)-3,5-dioxo-4,5-dihydro-1,2,4-triazin-2(3H)-yl)phenoxy)-2-hydroxyphenyl)sulfonamido)cyclobutyl) cyclopropanecarboxamide], the “THRα Emax” value in experiment [1] (setting [3]) is recorded as “C (<40)”. Further, the EC50 lay in the range of 200 to 1000 nM in experiment [1] (setting [5]) and 2 to 20 nM in experiment [2] (setting [6]). In addition, the “THRβ Emax” value in experiment [2] (setting [4]) is on record as “C (<75)”.

As for `O=C(NCC(F)F)C1(NS(=O)(=O)c2cc(Oc3c(Cl)cc(-n4nc(C(F)F)c(=O)[nH]c4=O)cc3Cl)ccc2O)CC1` [Compound 87, 1-[[5-[2,6-dichloro-4-[6-(difluoromethyl)-3,5-dioxo-1,2,4-triazin-2-yl]phenoxy]-2-hydroxy-phenyl]sulfonylamino]-N-(2,2-difluoroethyl) cyclopropanecarboxamide], the “THRα Emax” value in experiment [1] (setting [3]) is listed as “B (40~85)”. Moreover, the concentration for a half-maximal effect (EC50) in experiment [1] (setting [5]) was 200 to 1000 nM; in experiment [2] (setting [6]) it was less than 2 nM. Besides, in experiment [2] (setting [4]), the “THRβ Emax” value is reported as “B (75~90)”.

Regarding `O=C(CNS(=O)(=O)c1cc(Oc2c(Cl)cc(-n3nc(C(F)F)c(=O)[nH]c3=O)cc2Cl)ccc1O)NCC(F)F` [Compound 88, 2-((5-(2,6-dichloro-4-(6-(difluoromethyl)-3,5-dioxo-4,5-dihydro-1,2,4-triazin-2(3H)-yl)phenoxy)-2-hydroxyphenyl)sulfonamido)-N-(2,2-difluoroethyl)acetamide], in experiment [1] (setting [3]), the “THRα Emax” value is on record as “B (40~85)”. The EC50 is 200 to 1000 nM in experiment [1] (setting [5]) and 20 to 100 nM in experiment [2] (setting [6]). Besides, in experiment [2] (setting [4]), the “THRβ Emax” value is on record as “B (75~90)”.

In the case of `O=C(NC1CCC1)C1(NS(=O)(=O)c2cc(Oc3c(Cl)cc(-n4nc(C(F)F)c(=O)[nH]c4=O)cc3Cl)ccc2O)CC1` [Compound 89, N-cyclobutyl-1-((5-(2,6-dichloro-4-(6-(difluoromethyl)-3,5-dioxo-4,5-dihydro-1,2,4-triazin-2(3H)-yl)phenoxy)-2-hydroxyphenyl)sulfonamido)cyclopropane-1-carboxamide], in experiment [1] (setting [3]), the “THRα Emax” value is “A (85~110)”. For the same molecule, the EC50 in experiment [1] (setting [5]) was 2 to 200 nM; in experiment [2] (setting [6]), less than 2 nM. Further, the “THRβ Emax” value in experiment [2] (setting [4]) is recorded as “B (75~90)”.

As to `O=C(NC1CCCC1)C1(NS(=O)(=O)c2cc(Oc3c(Cl)cc(-n4nc(C(F)F)c(=O)[nH]c4=O)cc3Cl)ccc2O)CC1` [Compound 90, N-cyclopentyl-1-((5-(2,6-dichloro-4-(6-(difluoromethyl)-3,5-dioxo-4,5-dihydro-1,2,4-triazin-2(3H)-yl)phenoxy)-2-hydroxyphenyl)sulfonamido)cyclopropane-1-carboxamide], in experiment [1] (setting [3]), the “THRα Emax” value is reported as “A (85~110)”. The values for the EC50 in experiment [1] (setting [5]) and in experiment [2] (setting [6]) were 2 to 200 nM and less than 2 nM, respectively. Further, the “THRβ Emax” value in experiment [2] (setting [4]) is reported as “B (75~90)”.

Take `O=C(N1CCCC1)C1(NS(=O)(=O)c2cc(Oc3c(Cl)cc(-n4nc(C(F)F)c(=O)[nH]c4=O)cc3Cl)ccc2O)CC1` [Compound 91, 5-(2,6-dichloro-4-(6-(difluoromethyl)-3,5-dioxo-4,5-dihydro-1,2,4-triazin-2(3H)-yl)phenoxy)-2-hydroxy-N-(1-(pyrrolidine-1-carbonyl)cyclopropyl)benzenesulfonamide]: the “THRα Emax” value in experiment [1] (setting [3]) is given as “B (40~85)”. Besides, the EC50 in experiment [1] (setting [5]) fell in the range of 200 to 1000 nM; in experiment [2] (setting [6]) it was 2 to 20 nM. The “THRβ Emax” value in experiment [2] (setting [4]) was “A (90~110)”.

Consider `O=C(NC1CC1)C1(NS(=O)(=O)c2cc(Oc3c(Cl)cc(-n4nc(C(F)F)c(=O)[nH]c4=O)cc3Cl)ccc2O)CCC1` [Compound 92, N-cyclopropyl-1-((5-(2,6-dichloro-4-(6-(difluoromethyl)-3,5-dioxo-4,5-dihydro-1,2,4-triazin-2(3H)-yl)phenoxy)-2-hydroxyphenyl)sulfonamido)cyclobutane-1-carboxamide], for which, in experiment [1] (setting [3]), the “THRα Emax” value is on record as “B (40~85)”. The EC50 in experiment [1] (setting [5]) was in the range of 200 to 1000 nM; in experiment [2] (setting [6]) it was 2 to 20 nM. Moreover, in experiment [2] (setting [4]), the “THRβ Emax” value was “B (75~90)”.

With `O=C(NC1CC1)C1(NS(=O)(=O)c2cc(Oc3c(Cl)cc(-n4nc(C(F)(F)F)c(=O)[nH]c4=O)cc3Cl)ccc2O)CC1` [Compound 93, N-cyclopropyl-1-((5-(2,6-dichloro-4-(3,5-dioxo-6-(trifluoromethyl)-4,5-dihydro-1,2,4-triazin-2(3H)-yl)phenoxy)-2-hydroxyphenyl)sulfonamido)cyclopropane-1-carboxamide], the “THRα Emax” value in experiment [1] (setting [3]) was “C (<40)”. The values for the concentration for a half-maximal effect (EC50) in experiment [1] (setting [5]) and in experiment [2] (setting [6]) were greater than 1000 nM and 20 to 100 nM, respectively. Besides, the “THRβ Emax” value in experiment [2] (setting [4]) is given as “B (75~90)”.

(Values after patent publication US12291518B2, “Thyroid hormone receptor agonists and use thereof” (Eccogene Inc., priority 2020, dated 2025).)
